What was measured:
[1] = test system: NQO1 specific enzyme activity in BEAS-2B cells (marker for NRF2 activation); test: BEAS-2B NQO1 MTT Assay; format: cell-based; settings: Homo sapiens, compound incubated 48 hours, read-out: EC50 (NQO1 specific enzyme activity induction)
Method in brief: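 NQO1 specific activity induction is derived from the rate of MTT reduction (ΔOD/min, 570 nm, 30 min kinetic read) in crude lysates of BEAS-2B cells exposed to compound for 48 h. A 3-parameter fit gives EC50, reported as pEC50; part of each lysate goes to Cell Titer Glo.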

[2] = target: T1, Keap1 Kelch domain (321-609) / TAMRA-labeled 16mer NRF2 peptide (ETGE motif) (Homo sapiens, UniProt Q14145); test: NRF2-Keap1 FP Assay (Keap1 Kelch fluorescence polarization); format: binding; settings: 20 nM Keap1 (321-609), 8 nM Tamra labeled peptide
T1 construct: the Kelch domain (321-609) of Keap1 is used
T1 sequence (Q14145 321-609): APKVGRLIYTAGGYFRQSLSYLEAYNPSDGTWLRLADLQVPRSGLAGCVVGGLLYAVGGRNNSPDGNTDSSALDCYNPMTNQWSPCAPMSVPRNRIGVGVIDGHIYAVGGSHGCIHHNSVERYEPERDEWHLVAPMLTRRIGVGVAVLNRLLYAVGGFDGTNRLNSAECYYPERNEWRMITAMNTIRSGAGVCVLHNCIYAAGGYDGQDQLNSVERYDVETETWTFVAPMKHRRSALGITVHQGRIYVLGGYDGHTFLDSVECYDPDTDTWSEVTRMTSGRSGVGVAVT
Method in brief: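 Compound dilutions (3-fold) were incubated 1 hr at room temperature with 20 nM Keap1 Kelch (321-609) and 8 nM TAMRA-labeled ETGE 16mer peptide. Buffer was 50 mM Tris pH 8.0, 100 mM NaCl, 5 mM MgCl2, 1 mM DTT, 2 mM CHAPS, 0.005% BSA. Fluorescence polarization (mP) was normalized to controls and fitted with a four-parameter equation to give pIC50.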

[3] = target: T2, full length Keap1 protein / full length NRF2 protein (Homo sapiens, UniProt Q14145); test: NRF2-Keap1 TR-FRET Assay; format: binding; settings: 25 nM Keap1-FlagHis and 50 nM biotin-NRF2 added
T2 construct: full length NRF2 protein and full length Keap1 protein (Keap1 exists a dimer) are used; His
T2 sequence (Q14145 whole entry): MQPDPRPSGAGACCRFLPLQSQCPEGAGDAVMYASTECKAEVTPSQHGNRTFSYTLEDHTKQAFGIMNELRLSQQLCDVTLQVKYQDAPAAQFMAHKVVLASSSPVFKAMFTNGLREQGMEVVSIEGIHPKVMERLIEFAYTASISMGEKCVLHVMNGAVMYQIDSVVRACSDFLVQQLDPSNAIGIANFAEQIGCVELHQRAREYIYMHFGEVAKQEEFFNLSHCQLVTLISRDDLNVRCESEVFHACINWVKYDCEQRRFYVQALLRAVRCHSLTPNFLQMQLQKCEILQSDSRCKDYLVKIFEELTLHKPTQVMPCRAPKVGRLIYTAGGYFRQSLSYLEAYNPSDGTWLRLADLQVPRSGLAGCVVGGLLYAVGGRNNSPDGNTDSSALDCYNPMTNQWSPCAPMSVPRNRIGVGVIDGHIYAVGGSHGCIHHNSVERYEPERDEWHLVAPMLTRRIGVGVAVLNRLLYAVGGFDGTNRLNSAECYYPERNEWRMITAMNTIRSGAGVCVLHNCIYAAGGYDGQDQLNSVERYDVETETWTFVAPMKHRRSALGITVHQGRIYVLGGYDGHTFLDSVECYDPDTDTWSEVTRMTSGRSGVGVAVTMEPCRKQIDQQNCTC
Method in brief: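 Displacement of biotinylated full-length NRF2 from full-length Keap1 read by Eu/APC TR-FRET (665/615 nm) after 1 h detection at RT. Compound, 3-fold series, first incubated with Keap1 at 37 °C for 2.25 h, NRF2 then added at 4 °C for 1.25 h; pIC50 by four-parameter equation.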

IC50 [2] | IC50 [3] | SMILES | EC50 [1]
0.1 to 1 µM | 1 to 10 µM | CCn1cc(C2CC2c2c(C(=O)O)cnn2-c2cccc(-c3cccc(C(=O)N(C)C)c3)c2)nn1 (stereo not drawn) [Example 158, 1-(3′-(dimethylcarbamoyl)-[1,1′-biphenyl]-3-yl)-5-(2-(1-ethyl-1H-1,2,3-triazol-4-yl)cyclopropyl)-1H-pyrazole-4-carboxylic Acid] | 1 to 10 µM
0.1 to 1 µM | 1 to 10 µM | CC(C)Oc1cccc(-c2cccc(-n3ncc(C(=O)O)c3C3CC3c3cn(C)nn3)c2)c1F (stereo not drawn) [Example 181, 1-(2′-Fluoro-3′-isopropoxy-[1,1′-biphenyl]-3-yl)-5-(2-(1-methyl-1H-1,2,3-triazol-4-yl)cyclopropyl)-1H-pyrazole-4-carboxylic acid] | 1 to 10 µM
0.1 to 1 µM | 1 to 10 µM | O=C(O)c1cnn(-c2cccc(-c3cccc(C(=O)N(CCC(F)(F)F)CC4CC4)c3F)c2)c1C1CC1 [Example 23, 5-Cyclopropyl-1-(3-{3-[(cyclopropylmethyl)(3,3,3-trifluoropropyl)carbamoyl]-2-fluorophenyl}phenyl)-1H-pyrazole-4-carboxylic Acid] | 1 to 10 µM
0.01 to 0.1 µM | 0.1 to 1 µM | CC(COc1cccc(-c2cccc(-n3ncc(C(=O)O)c3C3CC3c3cn(C)nn3)c2)c1)C1CCCCC1 (stereo not drawn) [Example 173, 1-(3′-(2-Cyclohexylpropoxy)-[1,1′-biphenyl]-3-yl)-5-(2-(1-methyl-1H-1,2,3-triazol-4-yl)cyclopropyl)-1H-pyrazole-4-carboxylic acid] | 0.01 to 0.1 µM
> 10 µM | 10 to 100 µM | Cc1nc(-c2cccc(-c3cccc(-n4ncc(C(=O)O)c4C4CC4)c3)c2)no1 [Example 211, 5-Cyclopropyl-1-(3′-(5-methyl-1,2,4-oxadiazol-3-yl)-[1,1′-biphenyl]-3-yl)-1H-pyrazole-4-carboxylic acid] | 1 to 10 µM
0.01 to 0.1 µM | 0.1 to 1 µM | CCOC(c1cccc(-c2cccc(-n3ncc(C(=O)O)c3C3CC3c3cn(C)nn3)c2)c1)C(C)C (stereo not drawn) [Example 182, 1-(3′-(1-Ethoxy-2-methylpropyl)-[1,1′-biphenyl]-3-yl)-5-(2-(1-methyl-1H-1,2,3-triazol-4-yl)cyclopropyl)-1H-pyrazole-4-carboxylic acid] | 0.1 to 1 µM
0.1 to 1 µM | 0.1 to 1 µM | Cn1cc([C@@H]2C[C@H]2c2c(C(=O)O)cnn2-c2cccc(-c3cccc(CN4CCOCC4)c3)c2)nn1 (racemic) [Example 248, 5-(trans-2-(1-Methyl-1H-1,2,3-triazol-4-yl)cyclopropyl)-1-(3′-(morpholinomethyl)-[1,1′-biphenyl]-3-yl)-1H-pyrazole-4-carboxylic Acid] | 1 to 10 µM
0.01 to 0.1 µM | 0.1 to 1 µM | Cn1cc(C2CC2c2c(C(=O)O)cnn2-c2cccc(-c3cccc(C(O)C4CCCCC4)c3)c2)nn1 (stereo not drawn) [Example 220, 1-(3′-(Cyclohexyl(hydroxy)methyl)-[1,1′-biphenyl]-3-yl)-5-(2-(1-methyl-1H-1,2,3-triazol-4-yl)cyclopropyl)-1H-pyrazole-4-carboxylic acid] | 1 to 10 µM
0.1 to 1 µM | 1 to 10 µM | CN(C)C(=O)c1cccc(-c2cccc(-n3ncc(C(=O)O)c3C(F)(F)F)c2)c1F [Example 2, 1-{3-[3-(Dimethylcarbamoyl)-2-fluorophenyl]phenyl}-5-(trifluoromethyl)-1H-pyrazole-4-carboxylic Acid] | 1 to 10 µM
0.01 to 0.1 µM | 0.1 to 1 µM | CN(CC1CCCC1)C(=O)c1cccc(-c2cccc(-n3ncc(C(=O)O)c3C3CC3)c2)c1F [Example 12, 1-(3-{3-[(Cyclopentylmethyl)(methyl)carbamoyl]-2-fluorophenyl}phenyl)-5-cyclopropyl-1H-pyrazole-4-carboxylic Acid] | 1 to 10 µM
0.1 to 1 µM | 1 to 10 µM | CC1CCC(C)N1C(=O)c1cccc(-c2cccc(-n3ncc(C(=O)O)c3C3CC3)c2)c1F (stereo not drawn) [Example 24, 5-Cyclopropyl-1-{3-[3-(2,5-dimethylpyrrolidine-1-carbonyl)-2-fluorophenyl]phenyl}-1H-pyrazole-4-carboxylic Acid] | 1 to 10 µM
0.1 to 1 µM | 1 to 10 µM | Cn1cc([C@@H]2C[C@H]2c2c(C(=O)O)cnn2-c2cccc(-c3cccc(CN4CCCCC4)c3)c2)nn1 (racemic) [Example 247, 5-(trans-2-(1-Methyl-1H-1,2,3-triazol-4-yl)cyclopropyl)-1-(3′-(piperidin-1-ylmethyl)-[1,1′-biphenyl]-3-yl)-1H-pyrazole-4-carboxylic Acid] | 1 to 10 µM
0.1 to 1 µM | 1 to 10 µM | Cn1cc([C@H]2C[C@@H]2c2c(C(=O)O)cnn2-c2cccc(-c3cccc(OCc4cncnc4)c3)c2)nn1 (racemic) [Example 236, 5-((1,2-trans)-2-(1-Methyl-1H-1,2,3-triazol-4-yl)cyclopropyl)-1-(3′-(pyrimidin-5-ylmethoxy)-[1,1′-bipheny1]-3-yl)-1H-pyrazole-4-carboxylic acid] | 1 to 10 µM
0.1 to 1 µM | 1 to 10 µM | CCCN(CC1CC1)C(=O)c1cccc(-c2cccc(-n3ncc(C(=O)O)c3C3CC3)c2)c1C [Example 16, 5-Cyclopropyl-1-(3-{3-[(cyclopropylmethyl)(propyl)carbamoyl]-2-methylphenyl}phenyl)-1H-pyrazole-4-carboxylic Acid] | 1 to 10 µM
1 to 10 µM | 10 to 100 µM | CC(Oc1cccc(-c2cccc(-n3ncc(C(=O)O)c3C3CC3)c2)c1)C1CCCCC1 (stereo not drawn) [Example 60, 1-(3′-(1-Cyclohexylethoxy)-[1,1′-biphenyl]-3-yl)-5-cyclopropyl-1H-pyrazole-4-carboxylic Acid] | 1 to 10 µM
0.1 to 1 µM | 1 to 10 µM | CCCC(COc1cccc(-c2cccc(-n3ncc(C(=O)O)c3C3CC3c3cn(C)nn3)c2)c1)C1CCCCC1 (stereo not drawn) [Example 172, 1-(3′-((2-Cyclohexylpentyl)oxy)-[1,1′-biphenyl]-3-yl)-5-(2-(1-methyl-1H-1,2,3-triazol-4-yl)cyclopropyl)-1H-pyrazole-4-carboxylic acid] | 0.1 to 1 µM
0.01 to 0.1 µM | 0.01 to 0.1 µM | CN(CC1CC1)C(=O)c1cccc(-c2cccc(-n3ncc(C(=O)O)c3[C@@H]3C[C@H]3c3cn(C)nn3)c2)c1F (racemic) [Example 265] | 1 to 10 µM

Source: patent US10364256B2 (GlaxoSmithKline Intellectual Property Development Limited, priority 2015, dated 2019)
